Source: the NIST ThermoML archive (doi:10.1021/acs.jced.8b00524)

Assay: xn = mol fraction of the nth substance listed
Settings: 100 kPa, Liquid; for viscosity: Concentric cylinders viscometry; for mass density: Vibrating tube method

CCCCCCCCCCO [decan-1-ol] + CCCCOC(C)=O
Settings	mass density [kg/m3]	viscosity [mPa·s]
293.15 K, x2 = 0	829.5	14.42
293.15 K, x2 = 0.0809	832	12.8
293.15 K, x2 = 0.1599	834.6	11.41
293.15 K, x2 = 0.2401	837.6	10.07
293.15 K, x2 = 0.3499	842	8.41
293.15 K, x2 = 0.4401	846	7.18
293.15 K, x2 = 0.5598	851.9	5.67
293.15 K, x2 = 0.6499	856.8	4.62
293.15 K, x2 = 0.7401	862.3	3.6
293.15 K, x2 = 0.8499	869.6	2.38
293.15 K, x2 = 0.9399	876.2	1.38
298.15 K, x2 = 0	826.1	11.8
298.15 K, x2 = 0.0809	828.4	10.44
298.15 K, x2 = 0.1599	830.9	9.29
298.15 K, x2 = 0.2401	833.7	8.2
298.15 K, x2 = 0.3499	838	6.86
298.15 K, x2 = 0.4401	841.8	5.87
298.15 K, x2 = 0.5598	847.5	4.61
298.15 K, x2 = 0.6499	852.3	3.75
298.15 K, x2 = 0.7401	857.5	2.94
298.15 K, x2 = 0.8499	864.7	1.97
298.15 K, x2 = 0.9399	871.1	1.19
303.15 K, x2 = 0	822.7	9.76
303.15 K, x2 = 0.0809	824.8	8.61
303.15 K, x2 = 0.1599	827.1	7.62
303.15 K, x2 = 0.2401	829.7	6.71
303.15 K, x2 = 0.3499	833.8	5.59
303.15 K, x2 = 0.4401	837.5	4.78
303.15 K, x2 = 0.5598	843	3.75
303.15 K, x2 = 0.6499	847.6	3.06
303.15 K, x2 = 0.7401	852.7	2.4
303.15 K, x2 = 0.8499	859.6	1.64
303.15 K, x2 = 0.9399	866	1.04
308.15 K, x2 = 0	819.3	8.14
308.15 K, x2 = 0.0809	821.2	7.15
308.15 K, x2 = 0.1599	823.4	6.31
308.15 K, x2 = 0.2401	825.8	5.54
308.15 K, x2 = 0.3499	829.6	4.61
308.15 K, x2 = 0.4401	833.1	3.93
308.15 K, x2 = 0.5598	838.5	3.11
308.15 K, x2 = 0.6499	842.9	2.54
308.15 K, x2 = 0.7401	847.9	2.02
308.15 K, x2 = 0.8499	854.6	1.4
308.15 K, x2 = 0.9399	860.8	0.9
313.15 K, x2 = 0	815.8	6.84
313.15 K, x2 = 0.0809	817.3	5.99
313.15 K, x2 = 0.1599	819.2	5.27
313.15 K, x2 = 0.2401	821.4	4.62
313.15 K, x2 = 0.3499	824.9	3.83
313.15 K, x2 = 0.4401	828.2	3.28
313.15 K, x2 = 0.5598	833.2	2.59
313.15 K, x2 = 0.6499	837.5	2.15
313.15 K, x2 = 0.7401	842.4	1.71
313.15 K, x2 = 0.8499	849.1	1.22
313.15 K, x2 = 0.9399	855.3	0.81
318.15 K, x2 = 0	812.4	5.8
318.15 K, x2 = 0.0809	813.7	5.06
318.15 K, x2 = 0.1599	815.3	4.45
318.15 K, x2 = 0.2401	817.2	3.89
318.15 K, x2 = 0.3499	820.3	3.22
318.15 K, x2 = 0.4401	823.4	2.75
318.15 K, x2 = 0.5598	828.2	2.18
318.15 K, x2 = 0.6499	832.4	1.8
318.15 K, x2 = 0.7401	837.2	1.45
318.15 K, x2 = 0.8499	843.9	1.05
318.15 K, x2 = 0.9399	850.2	0.73
323.15 K, x2 = 0	808.9	4.96
323.15 K, x2 = 0.0809	809.9	4.31
323.15 K, x2 = 0.1599	811.3	3.79
323.15 K, x2 = 0.2401	813	3.3
323.15 K, x2 = 0.3499	815.9	2.72
323.15 K, x2 = 0.4401	818.8	2.32
323.15 K, x2 = 0.5598	823.4	1.84
323.15 K, x2 = 0.6499	827.3	1.53
323.15 K, x2 = 0.7401	832.1	1.25
323.15 K, x2 = 0.8499	838.7	0.92
323.15 K, x2 = 0.9399	844.9	0.66

CCCCCCCCCO [nonan-1-ol] + CCCCOC(C)=O
Settings	mass density [kg/m3]	viscosity [mPa·s]
293.15 K, x2 = 0	827.5	11.41
293.15 K, x2 = 0.0812	830.4	10.09
293.15 K, x2 = 0.1601	833.4	8.95
293.15 K, x2 = 0.2399	836.7	7.89
293.15 K, x2 = 0.3499	841.6	6.6
293.15 K, x2 = 0.4399	845.9	5.65
293.15 K, x2 = 0.5599	852.2	4.46
293.15 K, x2 = 0.6501	857.3	3.65
293.15 K, x2 = 0.7399	862.7	2.89
293.15 K, x2 = 0.8499	870	1.97
293.15 K, x2 = 0.9452	876.8	1.18
298.15 K, x2 = 0	824	9.43
298.15 K, x2 = 0.0812	826.7	8.31
298.15 K, x2 = 0.1601	829.6	7.35
298.15 K, x2 = 0.2399	832.8	6.49
298.15 K, x2 = 0.3499	837.4	5.4
298.15 K, x2 = 0.4399	841.6	4.62
298.15 K, x2 = 0.5599	847.7	3.64
298.15 K, x2 = 0.6501	852.7	2.99
298.15 K, x2 = 0.7399	858	2.37
298.15 K, x2 = 0.8499	865.1	1.65
298.15 K, x2 = 0.9452	871.8	1.03
303.15 K, x2 = 0	820.5	7.86
303.15 K, x2 = 0.0812	822.9	6.89
303.15 K, x2 = 0.1601	825.7	6.07
303.15 K, x2 = 0.2399	828.7	5.33
303.15 K, x2 = 0.3499	833.1	4.43
303.15 K, x2 = 0.4399	837.2	3.79
303.15 K, x2 = 0.5599	843.1	3
303.15 K, x2 = 0.6501	847.9	2.46
303.15 K, x2 = 0.7399	853	1.97
303.15 K, x2 = 0.8499	860	1.4
303.15 K, x2 = 0.9452	866.5	0.91
308.15 K, x2 = 0	817.1	6.61
308.15 K, x2 = 0.0812	819.4	5.78
308.15 K, x2 = 0.1601	821.9	5.08
308.15 K, x2 = 0.2399	824.7	4.44
308.15 K, x2 = 0.3499	828.9	3.68
308.15 K, x2 = 0.4399	832.8	3.14
308.15 K, x2 = 0.5599	838.4	2.49
308.15 K, x2 = 0.6501	843.1	2.07
308.15 K, x2 = 0.7399	848.1	1.67
308.15 K, x2 = 0.8499	854.9	1.21
308.15 K, x2 = 0.9452	861.4	0.81
313.15 K, x2 = 0	813.6	5.59
313.15 K, x2 = 0.0812	815.5	4.87
313.15 K, x2 = 0.1601	817.7	4.26
313.15 K, x2 = 0.2399	820.2	3.72
313.15 K, x2 = 0.3499	824.2	3.08
313.15 K, x2 = 0.4399	827.8	2.63
313.15 K, x2 = 0.5599	833.2	2.11
313.15 K, x2 = 0.6501	837.8	1.77
313.15 K, x2 = 0.7399	842.8	1.45
313.15 K, x2 = 0.8499	849.5	1.07
313.15 K, x2 = 0.9452	856	0.74
318.15 K, x2 = 0	810.1	4.78
318.15 K, x2 = 0.0812	811.8	4.15
318.15 K, x2 = 0.1601	813.8	3.62
318.15 K, x2 = 0.2399	816.1	3.16
318.15 K, x2 = 0.3499	819.7	2.61
318.15 K, x2 = 0.4399	823	2.24
318.15 K, x2 = 0.5599	828.3	1.8
318.15 K, x2 = 0.6501	832.7	1.5
318.15 K, x2 = 0.7399	837.5	1.24
318.15 K, x2 = 0.8499	844.3	0.93
318.15 K, x2 = 0.9452	850.8	0.67
323.15 K, x2 = 0	806.5	4.1
323.15 K, x2 = 0.0812	807.9	3.56
323.15 K, x2 = 0.1601	809.7	3.11
323.15 K, x2 = 0.2399	811.8	2.71
323.15 K, x2 = 0.3499	815.2	2.24
323.15 K, x2 = 0.4399	818.4	1.91
323.15 K, x2 = 0.5599	823.5	1.54
323.15 K, x2 = 0.6501	827.8	1.29
323.15 K, x2 = 0.7399	832.6	1.08
323.15 K, x2 = 0.8499	839.1	0.83
323.15 K, x2 = 0.9452	845.6	0.61
